{"source": "paper PMC7237647", "about": "“Synthesis, in vitro and in vivo evaluation of ^11C-O-methylated arylpiperazines as potential serotonin 1A (5-HT1A) receptor antagonist radiotracers” (EJNMMI Radiopharmacy and Chemistry, 2020)", "key": {"D4R": {"target": "T1, D4R (Homo sapiens, UniProt P21917)", "T1 construct": "NIMH-PDSP", "T1 sequence (P21917 1-419)": "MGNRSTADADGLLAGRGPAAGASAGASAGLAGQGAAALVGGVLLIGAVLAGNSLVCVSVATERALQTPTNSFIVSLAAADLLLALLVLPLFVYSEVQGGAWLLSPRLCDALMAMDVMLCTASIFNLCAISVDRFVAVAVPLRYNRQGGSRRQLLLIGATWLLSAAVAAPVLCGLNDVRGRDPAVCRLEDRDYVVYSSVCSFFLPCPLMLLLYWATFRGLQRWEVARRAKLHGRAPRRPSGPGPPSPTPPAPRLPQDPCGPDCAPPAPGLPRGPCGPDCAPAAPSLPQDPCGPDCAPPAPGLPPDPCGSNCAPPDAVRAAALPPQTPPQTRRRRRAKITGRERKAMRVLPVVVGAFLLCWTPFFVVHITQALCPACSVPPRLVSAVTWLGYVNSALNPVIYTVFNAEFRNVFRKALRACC", "assay": "NIMH-PDSP radioligand binding assay, D4R", "experimental": "(§1) . Cross selectivity for biogenic amines, neurotransmitter receptors, and transporters were determined by radioligand binding assays through NIMH- PDSP using validated and established protocols ([NIMH-PDSP Assay Protocol Book Version III, March 2018])."}, "5-HT3": {"target": "T2, 5-HT3 (Homo sapiens, UniProt P46098)", "T2 construct": "NIMH-PDSP", "T2 sequence (P46098 24-478)": "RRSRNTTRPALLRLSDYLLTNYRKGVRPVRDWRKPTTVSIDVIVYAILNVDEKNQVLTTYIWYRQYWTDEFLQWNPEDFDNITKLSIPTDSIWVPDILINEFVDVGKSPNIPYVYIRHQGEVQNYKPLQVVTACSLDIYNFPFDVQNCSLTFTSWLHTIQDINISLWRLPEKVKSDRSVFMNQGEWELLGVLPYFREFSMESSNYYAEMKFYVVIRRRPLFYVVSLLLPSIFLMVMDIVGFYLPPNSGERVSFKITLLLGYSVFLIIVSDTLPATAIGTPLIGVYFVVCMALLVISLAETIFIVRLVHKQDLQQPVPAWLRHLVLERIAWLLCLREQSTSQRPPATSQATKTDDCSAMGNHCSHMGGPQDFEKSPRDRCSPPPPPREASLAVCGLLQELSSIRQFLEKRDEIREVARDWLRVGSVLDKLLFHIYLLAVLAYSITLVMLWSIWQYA", "assay": "NIMH-PDSP radioligand binding assay, 5-HT3", "experimental": "as §1"}, "5-HT1A receptor": {"target": "T3, 5-HT1A receptor (Homo sapiens, UniProt P08908)", "T3 sequence (P08908 1-422)": "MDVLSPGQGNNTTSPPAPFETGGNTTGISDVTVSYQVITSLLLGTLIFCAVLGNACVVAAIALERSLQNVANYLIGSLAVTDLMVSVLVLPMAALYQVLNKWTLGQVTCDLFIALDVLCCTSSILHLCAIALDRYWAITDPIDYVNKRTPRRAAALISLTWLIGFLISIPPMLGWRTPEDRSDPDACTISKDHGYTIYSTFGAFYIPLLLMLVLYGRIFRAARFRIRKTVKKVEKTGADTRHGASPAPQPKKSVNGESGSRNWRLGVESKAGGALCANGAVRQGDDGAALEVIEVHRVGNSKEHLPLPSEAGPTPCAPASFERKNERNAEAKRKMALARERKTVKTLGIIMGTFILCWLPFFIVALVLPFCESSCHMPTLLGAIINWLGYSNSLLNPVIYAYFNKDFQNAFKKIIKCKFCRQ", "assay": "Competition binding with [^3H]WAY100635 at 5-HT1A receptors (NIMH-PDSP)", "conditions": "for Ki: competition with [^3H]WAY100635, 12 concentrations (10 μM to 1 pM), triplicate, cells expressing 5-HT1A receptor; for Binding affinity ratios of 5-HT1A and α1-adrenergic receptors: in vitro Ki ratio"}, "D1, D5": {"target": "D1, D5", "assay": "NIMH-PDSP radioligand binding assay, D1, D5"}, "SERT": {"target": "SERT (Homo sapiens, UniProt P31645)", "assay": "NIMH-PDSP radioligand binding assay, SERT", "experimental": "as §1"}, "5-HT2A [1]": {"target": "T4, 5-HT2A (Homo sapiens, UniProt P28223)", "T4 construct": "NIMH-PDSP", "T4 sequence (P28223 whole entry, species assumed)": "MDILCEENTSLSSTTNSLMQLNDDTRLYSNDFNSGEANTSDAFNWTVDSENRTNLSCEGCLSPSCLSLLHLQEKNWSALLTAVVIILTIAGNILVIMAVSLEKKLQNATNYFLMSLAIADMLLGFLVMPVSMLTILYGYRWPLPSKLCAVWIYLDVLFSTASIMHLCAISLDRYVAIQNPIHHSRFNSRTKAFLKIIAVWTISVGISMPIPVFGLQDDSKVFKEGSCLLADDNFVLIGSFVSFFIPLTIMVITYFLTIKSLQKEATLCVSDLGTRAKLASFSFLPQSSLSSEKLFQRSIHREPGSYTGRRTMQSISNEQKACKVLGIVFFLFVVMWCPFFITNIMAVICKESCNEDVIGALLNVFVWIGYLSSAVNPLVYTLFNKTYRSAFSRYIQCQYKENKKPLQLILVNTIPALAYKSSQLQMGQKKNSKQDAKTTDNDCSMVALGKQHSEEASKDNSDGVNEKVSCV", "assay": "NIMH-PDSP radioligand binding assay, 5-HT2A"}, "CB1, CB2": {"target": "CB1, CB2", "assay": "NIMH-PDSP radioligand binding assay, CB1, CB2"}, "5-HT4": {"target": "T5, 5-HT4 (Homo sapiens, UniProt Q13639)", "T5 construct": "NIMH-PDSP", "T5 sequence (Q13639 whole entry, species assumed)": "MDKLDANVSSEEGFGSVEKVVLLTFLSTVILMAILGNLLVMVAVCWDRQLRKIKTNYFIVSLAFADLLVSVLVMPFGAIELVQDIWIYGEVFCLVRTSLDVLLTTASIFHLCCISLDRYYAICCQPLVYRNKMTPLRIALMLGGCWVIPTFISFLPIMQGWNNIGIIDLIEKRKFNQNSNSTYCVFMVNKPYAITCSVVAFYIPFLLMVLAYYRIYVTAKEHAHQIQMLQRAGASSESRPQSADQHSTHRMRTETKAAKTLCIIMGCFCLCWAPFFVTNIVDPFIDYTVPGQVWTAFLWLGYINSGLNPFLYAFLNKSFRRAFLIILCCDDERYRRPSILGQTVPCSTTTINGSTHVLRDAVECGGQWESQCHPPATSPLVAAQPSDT", "assay": "NIMH-PDSP radioligand binding assay, 5-HT4", "experimental": "as §1"}, "H1-H4": {"target": "H1-H4", "assay": "NIMH-PDSP radioligand binding assay, H1-H4"}, "Muscarinic receptors": {"target": "Muscarinic receptors", "assay": "NIMH-PDSP radioligand binding assay, Muscarinic receptors"}, "Alpha2B": {"target": "T6, Alpha2B (Homo sapiens, UniProt P18089)", "T6 construct": "NIMH-PDSP", "T6 sequence (P18089 whole entry)": "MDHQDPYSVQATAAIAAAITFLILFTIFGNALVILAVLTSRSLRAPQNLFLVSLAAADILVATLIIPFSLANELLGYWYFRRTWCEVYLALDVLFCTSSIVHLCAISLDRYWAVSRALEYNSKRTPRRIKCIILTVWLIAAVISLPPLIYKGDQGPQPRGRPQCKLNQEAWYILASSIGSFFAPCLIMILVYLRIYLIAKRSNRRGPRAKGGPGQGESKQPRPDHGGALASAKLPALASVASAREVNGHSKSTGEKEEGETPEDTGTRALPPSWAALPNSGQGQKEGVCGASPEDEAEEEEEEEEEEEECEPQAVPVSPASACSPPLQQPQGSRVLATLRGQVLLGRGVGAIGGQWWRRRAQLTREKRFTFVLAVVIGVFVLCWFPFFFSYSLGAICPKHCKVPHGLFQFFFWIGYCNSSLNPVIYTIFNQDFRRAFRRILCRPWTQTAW", "assay": "NIMH-PDSP radioligand binding assay, Alpha2B"}, "NET": {"target": "NET (Homo sapiens, UniProt P23975)", "assay": "NIMH-PDSP radioligand binding assay, NET", "experimental": "as §1"}, "NMDA": {"target": "NMDA", "assay": "NIMH-PDSP radioligand binding assay, NMDA"}, "Alpha1D": {"target": "T7, Alpha1D (Homo sapiens, UniProt P25100)", "T7 construct": "NIMH-PDSP", "T7 sequence (P25100 whole entry)": "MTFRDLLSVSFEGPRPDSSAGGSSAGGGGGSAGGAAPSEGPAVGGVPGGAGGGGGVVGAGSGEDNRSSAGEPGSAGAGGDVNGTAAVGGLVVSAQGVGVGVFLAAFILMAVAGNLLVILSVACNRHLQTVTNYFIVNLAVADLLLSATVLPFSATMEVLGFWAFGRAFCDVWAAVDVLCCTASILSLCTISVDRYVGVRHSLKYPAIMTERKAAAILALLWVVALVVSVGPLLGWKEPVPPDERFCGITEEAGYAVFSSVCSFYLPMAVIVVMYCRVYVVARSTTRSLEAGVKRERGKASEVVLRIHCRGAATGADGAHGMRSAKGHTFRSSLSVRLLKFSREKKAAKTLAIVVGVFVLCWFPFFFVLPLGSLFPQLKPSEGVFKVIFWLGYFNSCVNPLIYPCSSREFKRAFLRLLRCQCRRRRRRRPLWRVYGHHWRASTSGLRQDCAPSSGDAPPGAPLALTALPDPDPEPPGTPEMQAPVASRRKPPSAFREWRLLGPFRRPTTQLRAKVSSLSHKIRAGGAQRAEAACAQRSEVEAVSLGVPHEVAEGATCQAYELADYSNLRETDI", "assay": "NIMH-PDSP radioligand binding assay, Alpha1D"}, "5-HT1B": {"target": "T8, 5-HT1B (Homo sapiens, UniProt P28222)", "T8 construct": "NIMH-PDSP", "assay": "NIMH-PDSP radioligand binding assay, 5-HT1B", "experimental": "as §1"}, "AMPA": {"target": "AMPA", "assay": "NIMH-PDSP radioligand binding assay, AMPA"}, "D2R": {"target": "T9, D2R (Homo sapiens, UniProt P14416)", "T9 construct": "NIMH-PDSP", "T9 sequence (P14416 whole entry)": "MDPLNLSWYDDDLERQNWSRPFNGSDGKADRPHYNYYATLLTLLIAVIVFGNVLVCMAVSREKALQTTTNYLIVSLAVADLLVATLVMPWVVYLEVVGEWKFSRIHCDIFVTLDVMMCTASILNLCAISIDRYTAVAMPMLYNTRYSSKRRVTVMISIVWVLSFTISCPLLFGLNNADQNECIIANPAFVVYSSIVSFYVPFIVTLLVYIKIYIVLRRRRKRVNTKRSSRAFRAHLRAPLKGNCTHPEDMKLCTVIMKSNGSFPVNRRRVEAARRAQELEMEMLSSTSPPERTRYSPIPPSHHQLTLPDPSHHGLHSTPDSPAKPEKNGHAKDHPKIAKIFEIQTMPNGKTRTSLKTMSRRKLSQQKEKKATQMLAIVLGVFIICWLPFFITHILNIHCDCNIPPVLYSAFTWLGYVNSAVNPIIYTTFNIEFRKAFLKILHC", "assay": "NIMH-PDSP radioligand binding assay, D2R"}, "5-HT1D": {"target": "T10, 5-HT1D (Homo sapiens, UniProt P28221)", "T10 construct": "NIMH-PDSP", "assay": "NIMH-PDSP radioligand binding assay, 5-HT1D", "experimental": "as §1"}, "5-HT2A [2]": {"target": "T4, 5-HT2A", "set-up": "method as in ref Fiorino et al. [2012]; Fiorino et al. [2016]; Fiorino et al. [2017]", "conditions": "previous preliminary pharmacological screening; ref Fiorino et al. [2012]; Fiorino et al. [2016]; Fiorino et al. [2017]; cited from earlier work"}, "Alpha2C": {"target": "T11, Alpha2C (Homo sapiens, UniProt P18825)", "T11 construct": "NIMH-PDSP", "T11 sequence (P18825 whole entry)": "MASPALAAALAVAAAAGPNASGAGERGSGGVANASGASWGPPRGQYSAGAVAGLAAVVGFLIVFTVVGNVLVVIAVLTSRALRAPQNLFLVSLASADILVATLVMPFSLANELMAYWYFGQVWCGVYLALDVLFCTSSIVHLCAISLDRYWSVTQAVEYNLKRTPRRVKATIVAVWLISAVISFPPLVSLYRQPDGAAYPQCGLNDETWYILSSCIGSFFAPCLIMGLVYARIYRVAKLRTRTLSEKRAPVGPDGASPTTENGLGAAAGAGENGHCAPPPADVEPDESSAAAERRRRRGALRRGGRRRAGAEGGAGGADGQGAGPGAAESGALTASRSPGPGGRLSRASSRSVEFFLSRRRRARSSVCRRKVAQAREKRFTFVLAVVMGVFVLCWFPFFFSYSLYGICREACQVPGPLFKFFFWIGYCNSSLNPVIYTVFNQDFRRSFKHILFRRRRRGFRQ", "assay": "NIMH-PDSP radioligand binding assay, Alpha2C"}, "DAT": {"target": "DAT (Homo sapiens, UniProt Q01959)", "sequence (Q01959 whole entry, species assumed)": "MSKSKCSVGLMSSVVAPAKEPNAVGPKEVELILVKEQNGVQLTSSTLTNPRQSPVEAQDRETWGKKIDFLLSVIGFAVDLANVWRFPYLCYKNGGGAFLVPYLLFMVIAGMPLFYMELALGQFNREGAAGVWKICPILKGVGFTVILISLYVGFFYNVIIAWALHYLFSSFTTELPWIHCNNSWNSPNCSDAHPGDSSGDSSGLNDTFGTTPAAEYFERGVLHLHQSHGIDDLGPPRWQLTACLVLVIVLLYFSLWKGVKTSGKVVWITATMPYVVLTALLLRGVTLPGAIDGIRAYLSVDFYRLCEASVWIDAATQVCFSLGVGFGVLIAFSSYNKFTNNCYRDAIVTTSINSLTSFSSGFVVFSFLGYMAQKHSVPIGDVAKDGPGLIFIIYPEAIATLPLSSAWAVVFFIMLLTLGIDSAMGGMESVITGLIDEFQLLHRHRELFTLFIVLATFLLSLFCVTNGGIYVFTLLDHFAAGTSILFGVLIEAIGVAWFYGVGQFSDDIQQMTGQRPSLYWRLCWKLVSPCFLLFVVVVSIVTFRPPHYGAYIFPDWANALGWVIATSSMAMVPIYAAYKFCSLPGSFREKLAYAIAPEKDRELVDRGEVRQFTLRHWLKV", "assay": "NIMH-PDSP radioligand binding assay, DAT", "experimental": "as §1"}, "Alpha1A": {"target": "T12, Alpha1A (Homo sapiens, UniProt P35348)", "T12 construct": "NIMH-PDSP", "assay": "NIMH-PDSP radioligand binding assay, Alpha1A", "conditions": "text b29 calls it α1-adrenergic receptors"}, "NOP": {"target": "T13, NOP (Homo sapiens, UniProt P41146)", "T13 construct": "NIMH-PDSP", "T13 sequence (P41146 whole entry)": "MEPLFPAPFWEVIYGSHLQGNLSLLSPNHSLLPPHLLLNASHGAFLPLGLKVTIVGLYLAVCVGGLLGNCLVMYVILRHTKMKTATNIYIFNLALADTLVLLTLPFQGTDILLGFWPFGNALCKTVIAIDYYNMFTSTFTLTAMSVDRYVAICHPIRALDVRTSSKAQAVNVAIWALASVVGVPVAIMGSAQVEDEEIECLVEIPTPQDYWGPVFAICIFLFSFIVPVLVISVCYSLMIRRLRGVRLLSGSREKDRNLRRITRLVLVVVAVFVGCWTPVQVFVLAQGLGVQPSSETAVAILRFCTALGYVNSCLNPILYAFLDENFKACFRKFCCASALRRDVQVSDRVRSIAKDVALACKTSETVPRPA", "assay": "NIMH-PDSP radioligand binding assay, NOP", "experimental": "as §1"}, "Adenosine receptors": {"target": "Adenosine receptors", "assay": "NIMH-PDSP radioligand binding assay, Adenosine receptors"}, "5-HT7R": {"target": "T14, 5-HT7R (Homo sapiens, UniProt P34969)", "T14 construct": "NIMH-PDSP", "T14 sequence (P34969 whole entry)": "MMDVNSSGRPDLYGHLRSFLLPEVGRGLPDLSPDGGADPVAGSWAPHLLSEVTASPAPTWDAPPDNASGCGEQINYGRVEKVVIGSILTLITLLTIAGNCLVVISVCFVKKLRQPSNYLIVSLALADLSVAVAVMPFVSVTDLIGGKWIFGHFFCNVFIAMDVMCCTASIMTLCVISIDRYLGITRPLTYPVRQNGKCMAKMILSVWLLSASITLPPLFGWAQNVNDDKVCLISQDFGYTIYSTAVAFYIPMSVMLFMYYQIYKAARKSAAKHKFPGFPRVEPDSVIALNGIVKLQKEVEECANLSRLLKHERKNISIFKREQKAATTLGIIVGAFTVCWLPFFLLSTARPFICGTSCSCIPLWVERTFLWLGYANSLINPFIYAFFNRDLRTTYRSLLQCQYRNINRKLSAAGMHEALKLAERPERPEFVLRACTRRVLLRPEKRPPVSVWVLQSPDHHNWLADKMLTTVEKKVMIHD", "assay": "NIMH-PDSP radioligand binding assay, 5-HT7R"}, "Alpha 2A": {"target": "T15, Alpha 2A (Homo sapiens, UniProt P08913)", "T15 construct": "NIMH-PDSP", "T15 sequence (P08913 whole entry)": "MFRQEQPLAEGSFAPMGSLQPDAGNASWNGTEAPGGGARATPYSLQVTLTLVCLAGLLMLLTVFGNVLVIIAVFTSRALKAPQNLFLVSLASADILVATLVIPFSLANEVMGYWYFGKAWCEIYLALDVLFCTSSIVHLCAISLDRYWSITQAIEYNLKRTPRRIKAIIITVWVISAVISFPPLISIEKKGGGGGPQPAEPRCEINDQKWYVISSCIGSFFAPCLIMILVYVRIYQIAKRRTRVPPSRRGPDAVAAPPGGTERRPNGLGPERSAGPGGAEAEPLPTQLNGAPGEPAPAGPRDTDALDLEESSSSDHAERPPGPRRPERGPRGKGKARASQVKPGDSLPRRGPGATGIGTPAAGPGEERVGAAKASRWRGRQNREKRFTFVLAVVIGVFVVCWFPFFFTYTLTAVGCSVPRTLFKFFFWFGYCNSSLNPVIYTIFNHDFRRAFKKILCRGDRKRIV", "assay": "NIMH-PDSP radioligand binding assay, Alpha 2A"}}, "data": [{"smiles": "COc1ccccc1N1CCN(CCNC(=O)c2ccccn2)CC1", "note": "[Compound 2]", "values": [{"measurement": "Ki", "setting": "D4R", "value": 0.088, "unit": "µM"}, {"measurement": "Ki", "setting": "5-HT3", "value": "> 10", "unit": "µM"}, {"measurement": "Ki", "setting": "5-HT1A receptor", "value": 0.0077, "unit": "µM"}, {"measurement": "Binding affinity ratios of 5-HT1A and α1-adrenergic receptors", "setting": "5-HT1A receptor", "value": "~ 6"}, {"measurement": "Ki", "setting": "D1, D5", "value": "> 10", "unit": "µM"}, {"measurement": "Ki", "setting": "SERT", "value": "> 10", "unit": "µM"}, {"measurement": "Ki", "setting": "5-HT2A [1]", "value": "> 10", "unit": "µM"}, {"measurement": "Ki", "setting": "CB1, CB2", "value": "> 10", "unit": "µM"}, {"measurement": "Ki", "setting": "5-HT4", "value": "> 10", "unit": "µM"}, {"measurement": "Ki", "setting": "H1-H4", "value": "> 10", "unit": "µM"}, {"measurement": "Ki", "setting": "Muscarinic receptors", "value": "> 10", "unit": "µM"}, {"measurement": "Ki", "setting": "Alpha2B", "value": "> 10", "unit": "µM"}, {"measurement": "Ki", "setting": "NET", "value": "> 10", "unit": "µM"}, {"measurement": "Ki", "setting": "NMDA", "value": "> 10", "unit": "µM"}, {"measurement": "Ki", "setting": "Alpha1D", "value": 0.053, "unit": "µM"}, {"measurement": "Ki", "setting": "5-HT1B", "value": "> 10", "unit": "µM"}, {"measurement": "Ki", "setting": "AMPA", "value": "> 10", "unit": "µM"}, {"measurement": "Ki", "setting": "D2R", "value": "> 10", "unit": "µM"}, {"measurement": "Ki", "setting": "5-HT1D", "value": "> 10", "unit": "µM"}, {"measurement": "affinity to 5-HT2A", "setting": "5-HT2A [2]", "value": "high affinities"}, {"measurement": "Ki", "setting": "Alpha2C", "value": "> 10", "unit": "µM"}, {"measurement": "Ki", "setting": "DAT", "value": "> 10", "unit": "µM"}, {"measurement": "Ki", "setting": "Alpha1A", "value": 0.046, "unit": "µM"}, {"measurement": "Ki", "setting": "NOP", "value": "> 10", "unit": "µM"}, {"measurement": "Ki", "setting": "Adenosine receptors", "value": "> 10", "unit": "µM"}, {"measurement": "Ki", "setting": "5-HT7R", "value": 0.83, "unit": "µM"}, {"measurement": "Ki", "setting": "Alpha 2A", "value": "> 10", "unit": "µM"}]}, {"smiles": "COc1ccccc1N1CCN(CCCN/C(=N\\C#N)c2ccccn2)CC1", "note": "[Compound 1]", "values": [{"measurement": "Ki", "setting": "D4R", "value": 0.137, "unit": "µM"}, {"measurement": "Ki", "setting": "5-HT3", "value": "> 10", "unit": "µM"}, {"measurement": "Ki", "setting": "5-HT1A receptor", "value": 0.022, "unit": "µM"}, {"measurement": "Binding affinity ratios of 5-HT1A and α1-adrenergic receptors", "setting": "5-HT1A receptor", "value": "~ 6"}, {"measurement": "Ki", "setting": "D1, D5", "value": "> 10", "unit": "µM"}, {"measurement": "Ki", "setting": "SERT", "value": "> 10", "unit": "µM"}, {"measurement": "Ki", "setting": "5-HT2A [1]", "value": "> 10", "unit": "µM"}, {"measurement": "Ki", "setting": "CB1, CB2", "value": "> 10", "unit": "µM"}, {"measurement": "Ki", "setting": "5-HT4", "value": "> 10", "unit": "µM"}, {"measurement": "Ki", "setting": "H1-H4", "value": "> 10", "unit": "µM"}, {"measurement": "Ki", "setting": "Muscarinic receptors", "value": "> 10", "unit": "µM"}, {"measurement": "Ki", "setting": "Alpha2B", "value": 0.67, "unit": "µM"}, {"measurement": "Ki", "setting": "NET", "value": "> 10", "unit": "µM"}, {"measurement": "Ki", "setting": "NMDA", "value": "> 10", "unit": "µM"}, {"measurement": "Ki", "setting": "Alpha1D", "value": 0.213, "unit": "µM"}, {"measurement": "Ki", "setting": "5-HT1B", "value": "> 10", "unit": "µM"}, {"measurement": "Ki", "setting": "AMPA", "value": "> 10", "unit": "µM"}, {"measurement": "Ki", "setting": "D2R", "value": 0.777, "unit": "µM"}, {"measurement": "Ki", "setting": "5-HT1D", "value": "> 10", "unit": "µM"}, {"measurement": "affinity to 5-HT2A", "setting": "5-HT2A [2]", "value": "high affinities"}, {"measurement": "Ki", "setting": "Alpha2C", "value": 0.835, "unit": "µM"}, {"measurement": "Ki", "setting": "DAT", "value": "> 10", "unit": "µM"}, {"measurement": "Ki", "setting": "Alpha1A", "value": 0.129, "unit": "µM"}, {"measurement": "Ki", "setting": "NOP", "value": "> 10", "unit": "µM"}, {"measurement": "Ki", "setting": "Adenosine receptors", "value": "> 10", "unit": "µM"}, {"measurement": "Ki", "setting": "5-HT7R", "value": 0.076, "unit": "µM"}, {"measurement": "Ki", "setting": "Alpha 2A", "value": 0.453, "unit": "µM"}]}]}
